# In patent publication US20250129069A1, “TRIAZOLO WRN INHIBITORS” (Nimbus Wadjet, Inc., priority 2023, published 2025):
# Like-named read-outs stand apart in the source and are kept apart here.
# How the values were obtained:
# [1] = target: human Werner helicase (WRN, amino acids 517-1235 with L1074F point mutation) (Homo sapiens (Human), UniProt Q14191, L1074F); experiment: WRN (BV08) ADP-Glo assay; format: biochemical; conditions: human WRN (aa 517-1235, L1074F), read-out: ADP-Glo_hWRN_IC50
# Procedure, shortened: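 Untagged WRN 517-1235 (L1074F), Sf9/baculovirus-expressed, 0.15 nM, preincubated 15 min with compound, then 5 μM ATP and 0.1 nM annealed DNA duplex added; 60 min at 25 °C in Bicine pH 7.5, 1 mM MgCl2, 1% DMSO. ADP-Glo luminescence; % inhibition vs DMSO and 20 μM NSC-617145 controls, four-parameter IC50 fit.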
# [2] = system: p21 induction in HCT 116 cells; experiment: p21 induction in cells (In-Cell Western, p21/GAPDH ratio); format: cell-based; conditions: 24 h compound incubation, read-out: p21_EC50
# Procedure, shortened: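 HCT 116 cells treated 24 h at 37° C with 11-point, 2-fold dilutions typically from 10 μM, in duplicate. Fixed cells co-stained for p21 (800 nm) and GAPDH (700 nm) by In-Cell Western. p21/GAPDH ratio normalised between DMSO and reference WRN inhibitor controls, and EC50 obtained by nonlinear regression.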
# Chain of human Werner helicase (WRN, amino acids 517-1235 with L1074F point mutation) (Q14191 other isoform, or with tags, fused parts or gaps L1074F (already in the parent)): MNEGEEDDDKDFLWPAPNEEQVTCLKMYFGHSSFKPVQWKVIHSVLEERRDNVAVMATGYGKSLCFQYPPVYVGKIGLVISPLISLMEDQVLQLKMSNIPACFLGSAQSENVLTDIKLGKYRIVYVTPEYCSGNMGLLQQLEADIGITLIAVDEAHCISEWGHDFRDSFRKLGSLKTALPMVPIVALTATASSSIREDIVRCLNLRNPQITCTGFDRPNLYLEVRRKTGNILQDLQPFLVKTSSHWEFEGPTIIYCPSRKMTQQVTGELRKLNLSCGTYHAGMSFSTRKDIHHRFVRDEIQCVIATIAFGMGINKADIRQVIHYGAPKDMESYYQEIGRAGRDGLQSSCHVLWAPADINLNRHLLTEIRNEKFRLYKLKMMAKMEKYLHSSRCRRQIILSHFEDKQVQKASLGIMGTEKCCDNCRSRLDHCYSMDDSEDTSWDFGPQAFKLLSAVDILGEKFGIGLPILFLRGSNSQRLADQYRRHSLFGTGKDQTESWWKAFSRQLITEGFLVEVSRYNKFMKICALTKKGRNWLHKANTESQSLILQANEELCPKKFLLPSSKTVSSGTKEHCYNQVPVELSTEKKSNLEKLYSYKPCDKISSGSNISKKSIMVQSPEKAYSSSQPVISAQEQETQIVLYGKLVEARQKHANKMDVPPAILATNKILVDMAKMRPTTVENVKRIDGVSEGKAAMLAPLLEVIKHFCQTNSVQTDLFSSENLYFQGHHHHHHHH
Compound,IC50 [1] [nM],EC50 ([2]; Homo sapiens) [nM],EC50 [2] [nM]
"CCc1c(N2CCN(C(=O)c3cnn(C)c3)[C@H]3CC[C@@H]32)c(=O)c2nn(C3=CCOCC3)nc2n1CC(=O)NC12CC(C(C)C)(C1)C2 [Compound I-206, 2-[2-(3,6-dihydro-2H-pyran-4-yl)-5-ethyl-6-[(1S,6S)-5-(1-methyl-1H-pyrazole-4-carbonyl)-2,5-diazabicyclo[4.2.0]octan-2-yl]-7-oxo-2H,4H,7H-[1,2,3]triazolo[4,5-b]pyridin-4-yl]-N-[3-(propan-2-yl)bicyclo[1.1.1]pentan-1-yl]acetamide]",5 to 50,500 to 2000,–
"CCc1c(N2CCN(C(=O)c3ncnc(C)c3O)[C@H]3CC[C@@H]32)c(=O)c2nn(-c3cc(C)n(C)n3)nc2n1CC(=O)NC12CC(C(C)C)(C1)C2 [Compound I-35, 2-[2-(1,5-dimethyl-1H-pyrazol-3-yl)-5-ethyl-6-[(1S,6S)-5-(5-hydroxy-6-methylpyrimidine-4-carbonyl)-2,5-diazabicyclo[4.2.0]octan-2-yl]-7-oxo-2H,4H,7H-[1,2,3]triazolo[4,5-b]pyridin-4-yl]-N-[3-(propan-2-yl)bicyclo[1.1.1]pentan-1-yl]acetamide]",5 to 50,≤ 500,–
"CCc1c(N2CCN(C(=O)c3ncnc(C)c3O)[C@H]3CC[C@@H]32)c(=O)c2nn(-c3ccnc(OC)c3)nc2n1CC(=O)NC12CC(C(C)C)(C1)C2 [Compound I-48, 2-{5-ethyl-6-[(1S,6S)-5-(5-hydroxy-6-methylpyrimidine-4-carbonyl)-2,5-diazabicyclo[4.2.0]octan-2-yl]-2-(2-methoxypyridin-4-yl)-7-oxo-2H,4H,7H-[1,2,3]triazolo[4,5-b]pyridin-4-yl}-N-[3-(propan-2-yl)bicyclo[1.1.1]pentan-1-yl]acetamide]",5 to 50,–,≤ 500
"CCc1c(N2CCN(C(=O)c3ncnc(C)c3O)[C@H]3CC[C@@H]32)c(=O)c2nn(-c3cnn(C4CC4)c3)nc2n1CC(=O)Nc1ccc(C(F)(F)F)cc1Cl [Compound I-57, N-[2-chloro-4-(trifluoromethyl)phenyl]-2-[2-(1-cyclopropyl-1H-pyrazol-4-yl)-5-ethyl-6-[(1S,6S)-5-(5-hydroxy-6-methylpyrimidine-4-carbonyl)-2,5-diazabicyclo[4.2.0]octan-2-yl]-7-oxo-2H,4H,7H-[1,2,3]triazolo[4,5-b]pyridin-4-yl]acetamide]",≤ 5,≤ 500,–
"CCc1c(N2CCN(C(=O)c3cccnc3OC)[C@H]3CC[C@@H]32)c(=O)c2nn(C3=CCOCC3)nc2n1CC(=O)NC12CC(C(C)C)(C1)C2 [Compound I-198, 2-[2-(3,6-dihydro-2H-pyran-4-yl)-5-ethyl-6-[(1S,6S)-5-(2-methoxypyridine-3-carbonyl)-2,5-diazabicyclo[4.2.0]octan-2-yl]-7-oxo-2H,4H,7H-[1,2,3]triazolo[4,5-b]pyridin-4-yl]-N-[3-(propan-2-yl)bicyclo[1.1.1]pentan-1-yl]acetamide]",5 to 50,≤ 500,–
"CCc1c(N2CCN(C(=O)c3c(OC)ncc(C)c3O)CC2)c(=O)c2nn(C3=CCOCC3)nc2n1CC(=O)NC12CC(C3CC3)(C1)C2 [Compound I-97, N-{3-cyclopropylbicyclo[1.1.1]pentan-1-yl}-2-[2-(3,6-dihydro-2H-pyran-4-yl)-5-ethyl-6-[4-(4-hydroxy-2-methoxy-5-methylpyridine-3-carbonyl)piperazin-1-yl]-7-oxo-2H,4H,7H-[1,2,3]triazolo[4,5-b]pyridin-4-yl]acetamide]",5 to 50,≤ 500,–
"CCc1c(N2CCN(C(=O)c3ncnc(C)c3O)[C@H]3CC[C@@H]32)c(=O)c2nn(-c3cc(C)n(C)n3)nc2n1CC(=O)NC1CC2(CCC2)C1 [Compound I-36, 2-[2-(1,5-dimethyl-1H-pyrazol-3-yl)-5-ethyl-6-[(1S,6S)-5-(5-hydroxy-6-methylpyrimidine-4-carbonyl)-2,5-diazabicyclo[4.2.0]octan-2-yl]-7-oxo-2H,4H,7H-[1,2,3]triazolo[4,5-b]pyridin-4-yl]-N-{spiro[3.3]heptan-2-yl}acetamide]",5 to 50,≤ 500,–
"CCc1c(N2CCN(C(=O)c3ncncc3OC)[C@H]3CC[C@@H]32)c(=O)c2nn(C3=CCOCC3)nc2n1CC(=O)NC12CC(C(C)C)(C1)C2 [Compound I-167, 2-[2-(3,6-dihydro-2H-pyran-4-yl)-5-ethyl-6-[(1S,6S)-5-(5-methoxypyrimidine-4-carbonyl)-2,5-diazabicyclo[4.2.0]octan-2-yl]-7-oxo-2H,4H,7H-[1,2,3]triazolo[4,5-b]pyridin-4-yl]-N-[3-(propan-2-yl)bicyclo[1.1.1]pentan-1-yl]acetamide]",5 to 50,500 to 2000,–
"CCc1c(N2CCN(C(=O)c3ncnc(C)c3O)[C@H]3CC[C@@H]32)c(=O)c2nn(-c3ccnc(OC)c3)nc2n1CC(=O)NC1CC2(C1)CC2F (stereo partly drawn) [Compound I-69, 2-{5-ethyl-6-[(1S,6S)-5-(5-hydroxy-6-methylpyrimidine-4-carbonyl)-2,5-diazabicyclo[4.2.0]octan-2-yl]-2-(2-methoxypyridin-4-yl)-7-oxo-2H,4H,7H-[1,2,3]triazolo[4,5-b]pyridin-4-yl}-N-{1-fluorospiro[2.3]hexan-5-yl}acetamide]",5 to 50,500 to 2000,–
"CCc1c(N2CCN(C(=O)c3ncnc(C)c3O)[C@H]3CC[C@@H]32)c(=O)c2nn(-c3ccnc(C)c3)nc2n1CC(=O)Nc1ccc(C(F)(F)F)cc1Cl [Compound I-9, N-(2-chloro-4-(trifluoromethyl)phenyl)-2-(5-ethyl-6-((1S,6S)-5-(5-hydroxy-6-methylpyrimidine-4-carbonyl)-2,5-diazabicyclo[4.2.0]octan-2-yl)-2-(2-methylpyridin-4-yl)-7-oxo-2,7-dihydro-4H-[1,2,3]triazolo[4,5-b]pyridin-4-yl)acetamide]",5 to 50,≤ 500,–
"CCOc1ncc(C)c(O)c1C(=O)N1CCN(c2c(CC)n(CC(=O)NC34CC(C(C)C)(C3)C4)c3nn(-c4ccnc(OC)c4)nc3c2=O)CC1 [Compound I-98, 2-{6-[4-(2-ethoxy-4-hydroxy-5-methylpyridine-3-carbonyl)piperazin-1-yl]-5-ethyl-2-(2-methoxypyridin-4-yl)-7-oxo-2H,4H,7H-[1,2,3]triazolo[4,5-b]pyridin-4-yl}-N-[3-(propan-2-yl)bicyclo[1.1.1]pentan-1-yl]acetamide]",5 to 50,≤ 500,–
"CCc1c(N2CCN(C(=O)OC)[C@H]3CC[C@@H]32)c(=O)c2nn(C3=CCOCC3)nc2n1CC(=O)NC12CC(C(C)C)(C1)C2 [Compound I-162, methyl (1S,6S)-5-[2-(3,6-dihydro-2H-pyran-4-yl)-5-ethyl-7-oxo-4-({[3-(propan-2-yl)bicyclo[1.1.1]pentan-1-yl]carbamoyl}methyl)-2H,4H,7H-[1,2,3]triazolo[4,5-b]pyridin-6-yl]-2,5-diazabicyclo[4.2.0]octane-2-carboxylate]",5 to 50,≤ 500,–
"CCc1c(N2CCN(C(=O)c3cccc4ncoc34)[C@H]3CC[C@@H]32)c(=O)c2nn(C3=CCOCC3)nc2n1CC(=O)Nc1ccc(C(F)(F)F)cc1Cl [Compound I-115, 2-{6-[(1S,6S)-5-(1,3-benzoxazole-7-carbonyl)-2,5-diazabicyclo[4.2.0]octan-2-yl]-2-(3,6-dihydro-2H-pyran-4-yl)-5-ethyl-7-oxo-2H,4H,7H-[1,2,3]triazolo[4,5-b]pyridin-4-yl}-N-[2-chloro-4-(trifluoromethyl)phenyl]acetamide]",5 to 50,≤ 500,–
"CCc1c(N2CCN(C(=O)c3ncnc(C)c3O)[C@H]3CC[C@@H]32)c(=O)c2nn(-c3ncccc3F)nc2n1CC(=O)NC12CC(C(C)C)(C1)C2 [Compound I-163, 2-[5-ethyl-2-(3-fluoropyridin-2-yl)-6-[(1S,6S)-5-(5-hydroxy-6-methylpyrimidine-4-carbonyl)-2,5-diazabicyclo[4.2.0]octan-2-yl]-7-oxo-2H,4H,7H-[1,2,3]triazolo[4,5-b]pyridin-4-yl]-N-[3-(propan-2-yl)bicyclo[1.1.1]pentan-1-yl]acetamide]",5 to 50,> 5000,–
"CCc1c(C2=CCN(C(=O)c3ncnc(C)c3O)CC2)c(=O)c2nn(-c3ccnc(OC)c3)nc2n1CC(=O)NC12CC(C(C)C)(C1)C2 [Compound I-79, 2-{5-ethyl-6-[1-(5-hydroxy-6-methylpyrimidine-4-carbonyl)-1,2,3,6-tetrahydropyridin-4-yl]-2-(2-methoxypyridin-4-yl)-7-oxo-2H,4H,7H-[1,2,3]triazolo[4,5-b]pyridin-4-yl}-N-[3-(propan-2-yl)bicyclo[1.1.1]pentan-1-yl]acetamide]",5 to 50,500 to 2000,–
"CCc1c(N2CCN(C(=O)c3ncnc(C)c3O)[C@H]3CC[C@@H]32)c(=O)c2nn(-c3ccnc(OC)c3)nc2n1CC(=O)NC12CC(C3CCCC3)(C1)C2 [Compound I-195, N-{3-cyclopentylbicyclo[1.1.1]pentan-1-yl}-2-{5-ethyl-6-[(1S,6S)-5-(5-hydroxy-6-methylpyrimidine-4-carbonyl)-2,5-diazabicyclo[4.2.0]octan-2-yl]-2-(2-methoxypyridin-4-yl)-7-oxo-2H,4H,7H-[1,2,3]triazolo[4,5-b]pyridin-4-yl}acetamide]",≤ 5,≤ 500,–
